Counter-ions that a name gives are not always drawn.
How the values were obtained:
[1] = tested on: LPS-activated RAW264.7 macrophage cell cultures; conditions: cited from earlier work
sepsis = conditions: cited from earlier work
[2] = tested on: RAW 264.7 murine macrophage cells; test: LPS-induced inflammatory cytokine levels (IL-1β, IL-6, TNFα) by ELISA in RAW 264.7 cells; assay type: cell-based; conditions: for IL-1β level in presence of nAChR antagonist / IL-6 level in presence of nAChR antagonist / TNFα level in presence of nAChR antagonist: antagonist 30 minutes before varenicline and LPS, compared to varenicline-treated groups
Protocol: RAW 264.7 murine macrophage cells maintained in culture media supplemented with heat inactivated FBS (10%) and penicillin (100 U/ml) and streptomycin (100 μg/ml) at 37° C. in a 5% CO2 incubator were used during the experimental studies. The cells (500,000/well) were seeded in 48-well culture plates after detachment with scraping incubated for 24 h in serum-free media for reattachment to the surface. In the first group, the cells were treated with LPS at increasing concentrations to determine the effective concentration at which cytokines are released. In the second group, the cells were pretreated with varenicline tartarate with increasing concentrations in presence of LPS to determine effective varenicline concentration on LPS-induced cytokine levels. Additionally, the anti-inflammatory effect of varenicline was compared with that of dexamethasone. In the third group, a non-selective nicotinic ACh receptor antagonist mecamylamine hydrochloride and a selective α7nAChR antagonist methyllycaconitine citrate were applied prior to varenicline and LPS administration in order to investigate the involvement of nicotinic receptors.
The inflammatory response of macrophage cells was evaluated by the change in inflammatory cytokine levels (IL-1β, IL-6 and TNFα) after 24 hours. In other groups where the effect of varenicline will be investigated, the LPS concentration, which triggers the increase in all cytokines determined in the first group and employed for the induction of inflammatory response. Increasing concentrations of varenicline were administered 30 minutes before LPS administration, LPS-induced cytokine levels were analyzed at the end of 24-hour protocol and the effective concentration on cytokine levels were determined in the second group. The effective concentration of varenicline was used in the third group in which the receptor-mediated effects investigated.
(§1) Antagonist drugs was applied 30 minutes before varenicline and LPS applications. Thus, the role of α7nAChRs and activation of the cholinergic anti-inflammatory pathway was determined at the end of 24-hour protocol by examining LPS-induced inflammatory cytokine levels (IL-1β, IL-6 and TNFα) in addition to 40 different cytokines and chemokines.
(§2) The results are as follows for the application of the invention. (1) Cytokine levels (IL-1β, IL-6 and TNFα) examined by the ELISA method were increased at the end of 24-hour protocol after induced by LPS in RAW 264.7 cells.

α7nAChRs = α7nAChRs (Homo sapiens, UniProt P36544); conditions: cited from earlier work
Chain of α7nAChRs (P36544 23-502): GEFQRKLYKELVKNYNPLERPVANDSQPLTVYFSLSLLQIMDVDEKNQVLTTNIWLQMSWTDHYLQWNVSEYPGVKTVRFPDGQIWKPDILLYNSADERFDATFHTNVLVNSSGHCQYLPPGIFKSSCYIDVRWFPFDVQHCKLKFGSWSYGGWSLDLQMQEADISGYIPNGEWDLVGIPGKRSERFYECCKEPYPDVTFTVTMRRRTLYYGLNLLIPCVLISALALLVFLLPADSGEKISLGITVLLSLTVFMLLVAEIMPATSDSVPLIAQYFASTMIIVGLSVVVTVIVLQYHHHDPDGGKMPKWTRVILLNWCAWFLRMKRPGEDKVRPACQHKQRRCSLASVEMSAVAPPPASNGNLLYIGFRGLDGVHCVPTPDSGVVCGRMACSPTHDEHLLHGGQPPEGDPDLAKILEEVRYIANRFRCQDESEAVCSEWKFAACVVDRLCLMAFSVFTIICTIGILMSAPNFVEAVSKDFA

α4β2nAChRs = α4β2nAChRs (Homo sapiens, UniProt P17787+P43681); conditions: central nervous system; cited from earlier work
Chain of α4β2nAChRs (P43681 29-627 limits assumed): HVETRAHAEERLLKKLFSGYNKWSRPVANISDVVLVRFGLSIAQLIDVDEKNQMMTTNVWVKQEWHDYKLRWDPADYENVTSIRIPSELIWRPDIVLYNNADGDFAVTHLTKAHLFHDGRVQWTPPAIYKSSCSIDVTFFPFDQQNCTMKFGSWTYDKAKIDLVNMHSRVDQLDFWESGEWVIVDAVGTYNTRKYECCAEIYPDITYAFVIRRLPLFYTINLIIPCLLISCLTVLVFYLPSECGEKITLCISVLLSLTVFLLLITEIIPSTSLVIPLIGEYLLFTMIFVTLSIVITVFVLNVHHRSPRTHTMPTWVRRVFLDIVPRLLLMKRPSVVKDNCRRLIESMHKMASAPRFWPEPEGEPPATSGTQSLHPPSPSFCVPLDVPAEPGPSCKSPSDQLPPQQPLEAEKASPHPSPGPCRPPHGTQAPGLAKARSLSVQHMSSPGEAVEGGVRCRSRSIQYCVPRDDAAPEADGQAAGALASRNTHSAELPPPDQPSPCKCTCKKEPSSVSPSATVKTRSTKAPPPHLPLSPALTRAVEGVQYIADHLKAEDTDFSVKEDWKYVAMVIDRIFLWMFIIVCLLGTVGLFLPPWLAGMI
Chain of α4β2nAChRs (P17787 26-502): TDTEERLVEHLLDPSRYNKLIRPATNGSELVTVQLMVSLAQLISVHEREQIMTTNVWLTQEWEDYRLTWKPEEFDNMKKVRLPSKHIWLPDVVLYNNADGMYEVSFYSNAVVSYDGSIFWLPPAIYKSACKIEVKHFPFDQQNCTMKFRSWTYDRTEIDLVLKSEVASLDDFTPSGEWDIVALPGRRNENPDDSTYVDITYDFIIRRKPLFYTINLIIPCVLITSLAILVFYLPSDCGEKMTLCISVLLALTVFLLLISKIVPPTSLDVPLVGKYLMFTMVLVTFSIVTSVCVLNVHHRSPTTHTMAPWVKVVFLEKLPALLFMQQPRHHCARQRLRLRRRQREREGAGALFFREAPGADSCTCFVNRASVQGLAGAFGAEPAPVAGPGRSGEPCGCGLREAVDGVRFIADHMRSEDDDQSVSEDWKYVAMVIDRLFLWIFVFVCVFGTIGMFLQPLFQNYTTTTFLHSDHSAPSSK

[3] = tested on: emphysema induced by porcine pancreatic elastase; conditions: mice, PPE emphysema, cited from earlier work
[4] = tested on: RAW 264.7 murine macrophage cells; test: LPS-induced macrophage migration; assay type: cell-based
Protocol: (§3) Here, in the application subject invention, the anti-inflammatory potential of varenicline, which is used in the treatment of smoking cessation, was determined for the first time by suppressing increased cytokine levels in inflammatory conditions. According to the current study, the anti-inflammatory activity of varenicline is not limited to its suppression of cytokine levels, but is also associated with suppressed proliferation and macrophage migration rates (FIGS. 4A-6C).
FIGS. 5A-5B. Effects of varenicline on LPS-induced cell migration in the presence or absence of nAChR antagonists
(§4) This invention points out repurposing of varenicline and provides mechanical insights about the effects of varenicline on α7nAChR-mediated activation of cholinergic anti-inflammatory pathway (CAP), cell proliferation, and migration in the in vitro inflammation model induced by LPS.

[5] = tested on: RAW 264.7 murine macrophage cells; test: LPS-induced cell proliferation; assay type: cell-based
Protocol: as §3
FIGS. 4A-4B. Effects of varenicline on LPS-induced cell proliferation in the presence or absence of nAChR antagonists.
as §4

RAW 264.7 macrophages = test: LPS-induced cytokine and chemokine panel in RAW 264.7 macrophages; assay type: cell-based, mouse
Protocol: FIGS. 6A-6C. Effects of varenicline on LPS-induced 14 mouse cytokines levels in RAW 264.7 macrophages.
as §1, §2

[6] = tested on: transient middle cerebral artery ischemia model; conditions: mice, treatment for one week, cited from earlier work
smokers = conditions: 3 months of treatment; cited from earlier work
[7] = tested on: RAW 264.7 macrophage cells stimulated with LPS; conditions: via α7nAChR activation; LPS-stimulated RAW 264.7; cited from earlier work
[8] = varenicline 30 minutes before LPS, 24-hour protocol, compared to the LPS group

## COc1ccc(/C=C2\CCCN=C2c2cccnc2)c(OC)c1 [GTS-21]
[1]
  HMGB-1 level: significantly reduces
  TNFα level: significantly reduces
sepsis
  cytokine levels that increased due to inflammation: decreased
  life span of experimental animals: extended

## CNC1(C)C2CCC(C2)C1(C)C (stereo not shown) [MEC, mecamylamine hydrochloride]
[2]
  IL-1β level in presence of nAChR antagonist: significantly increased
  IL-6 level in presence of nAChR antagonist: significantly increased
  TNFα level in presence of nAChR antagonist: significantly increased

## c1cnc2cc3c(cc2n1)[C@@H]1CNC[C@H]3C1 [Varenicline, varenicline]
α7nAChRs
  effect on α7nAChRs: potent and complete agonist
α4β2nAChRs
  effect on α4β2nAChRs: partial agonistic effect
[3]; immunohistochemical analysis
  inflammation: reduce
[3]; with activation of α7nAChR
  number of T cells in tissue: significantly reduced
  number of macrophages in tissue: significantly reduced
  number of neutrophils in tissue: significantly reduced
[4]
  macrophage migration rate: suppressed
[5]
  proliferation rate: suppressed
RAW 264.7 macrophages
  LPS-induced 14 different cytokines and chemokines (G-CSF, GM-CSF, IL-1, IL-6, IL-27, IL-1ra, IP-10, MCP-1, MIP-1, RANTES, TNF α): significantly decreased
[6]
  use of damaged forelimbs: increased
[6]; immunohistochemical analysis
  inflammation in the corpus striatum: decreased
smokers
  atherosclerosis: reduced
  endothelial damage: reduced
  oxidative stress: reduced
[2]; [8]
  IL-1β level: significantly decreased
  IL-6 level: significantly decreased
  TNFα level: significantly decreased

## CN1CCCC1c1cccnc1 (stereo not shown) [nicotine]
[7]
  TNFα levels: decrease

## methyllycaconitine citrate [MLA]
[2]
  IL-1β level in presence of nAChR antagonist: significantly increased
  IL-6 level in presence of nAChR antagonist: significantly increased
  TNFα level in presence of nAChR antagonist: significantly increased
